SMILES strings stand for the structures.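 Five concentrations, 48 hours, 96-well plates. At the GI50, growth is halved.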 The source made the active and inactive calls. Cut-off read from the data, not from the text of the source: active = GI50 up to about 1.1 µM and inactive = higher.

Some test systems named below: CCRF-CEM; HL-60; HOP-92; HT-29; MDA-MB-435; MOLT-4; Malme-3M; NCI-H23; NCI-H522; OVCAR-5; OVCAR-8; SK-MEL-2; SN12C; SNB-19; SNB-75; SR; SW-620; T47D; UACC-257; UO-31.
What all share (experiment): NCI-60 cell line screen, 48 h

As to `CC/C=C/C[C@H](O[Si](C)(C)C(C)(C)C)[C@H]1C[C@H]2O[C@H]([C@@H](O)C#C[Si](C)(C)C)C[C@H]2O1`, the GI50 in the assay with CCRF-CEM was 21.5 µM (inactive); with HL-60, 3.84 µM (inactive); in the assay with HOP-92, 10.4 µM (inactive); in the assay on HT-29 it was 11.9 µM (inactive); with MDA-MB-435, 12.3 µM (inactive); in the assay on MOLT-4, 12.6 µM (inactive). Besides, the GI50 in the assay with Malme-3M is 11.9 µM (inactive); in the assay on NCI-H23, 12 µM (inactive); with NCI-H522 it was 3.64 µM (inactive); with OVCAR-5, 14.1 µM (inactive); in the assay on OVCAR-8, 14.8 µM (inactive); in the assay on SK-MEL-2, 15.5 µM (inactive). Besides, the GI50 with SN12C is 5.36 µM (inactive); with SNB-19, 13.8 µM (inactive); in the assay with SNB-75, 16.3 µM (inactive); in the assay with SR, 2.31 µM (inactive); with SW-620, 16.6 µM (inactive); with T47D, 7.55 µM (inactive). Further, the GI50 is 9.75 µM (inactive) in the assay on UACC-257 and 14.2 µM (inactive) with UO-31.
As to `CC(=O)Nc1ccc(S(=O)(=O)N=S(C)C)cc1`, the GI50 in the assay on CCRF-CEM, in the assay on HL-60, with HOP-92, with HT-29, with MDA-MB-435 and in the assay on MOLT-4 was > 100 µM (inactive) each time. The GI50 with Malme-3M, with NCI-H23, in the assay on NCI-H522, in the assay on OVCAR-5, in the assay on OVCAR-8 and in the assay with SK-MEL-2 was > 100 µM (inactive) in each case. The GI50 with SN12C, with SNB-19, with SNB-75, in the assay on SR, with SW-620 and with T47D was > 100 µM (inactive) in each case. Besides, the GI50 in the assay with UACC-257 and in the assay on UO-31 was > 100 µM (inactive) in each case.
`CC1=NN(C(=O)CC(=O)Nc2cccc(C)c2)C(=O)C1/N=N/c1ccc(S(=O)(=O)CCOS(=O)(=O)O)cc1` (centres undefined): the GI50 with CCRF-CEM is 0.422 µM (active); in the assay with HL-60, 1.33 µM (inactive); in the assay with HOP-92, 2.25 µM (inactive); in the assay with HT-29 it was 0.767 µM (active); with MDA-MB-435 it was 0.211 µM (active); with MOLT-4, 0.406 µM (active). The GI50 in the assay on Malme-3M was 0.839 µM (active); in the assay with NCI-H23, 0.76 µM (active); in the assay on NCI-H522, 0.291 µM (active); in the assay on OVCAR-5, 36.6 µM (inactive); in the assay on OVCAR-8, 0.486 µM (active); in the assay with SK-MEL-2 it was 0.313 µM (active). Besides, the GI50 in the assay on SN12C is 0.471 µM (active); in the assay on SNB-19 it was 4 µM (inactive); in the assay on SNB-75, 0.805 µM (active); in the assay with SR, 0.49 µM (active); in the assay on SW-620 it was 0.406 µM (active); in the assay on T47D it was > 34.5 µM (inactive). For the same compound, the GI50 was 7.71 µM (inactive) with UACC-257 and 2.93 µM (inactive) in the assay with UO-31.
Regarding `O=C(CCCl)NN=C1NCCCN1`, the GI50 in the assay with CCRF-CEM, in the assay with HL-60, with HOP-92, with HT-29, in the assay on MDA-MB-435 and with MOLT-4 was > 100 µM (inactive) in each case. The GI50 in the assay with Malme-3M, in the assay on NCI-H23, with NCI-H522, in the assay on OVCAR-5, with OVCAR-8 and with SK-MEL-2 was > 100 µM (inactive) in each case. For the same compound, the GI50 in the assay on SN12C, in the assay with SNB-19, in the assay with SNB-75, in the assay with SR, in the assay on SW-620 and in the assay with T47D was > 100 µM (inactive) in each case. Besides, the GI50 in the assay on UACC-257 and in the assay on UO-31 was > 100 µM (inactive) each time.
In the case of `COC(=O)CCc1cc(O)c2c(c1)C(C(=O)OC)C(c1ccc(O)c(O)c1)O2` (centres undefined), the GI50 in the assay on CCRF-CEM is 3.21 µM (inactive); in the assay with HL-60, 2.55 µM (inactive); in the assay on HOP-92 it was 44 µM (inactive); in the assay on HT-29 it was 27.2 µM (inactive); with MDA-MB-435, 1.48 µM (inactive); in the assay on MOLT-4 it was 5.09 µM (inactive). Further, the GI50 in the assay on Malme-3M is 6.97 µM (inactive); with NCI-H23 it was 26.6 µM (inactive); in the assay on NCI-H522, 12.6 µM (inactive); with OVCAR-5 it was > 65.5 µM (inactive); with OVCAR-8, 21.8 µM (inactive); with SK-MEL-2 it was 3.39 µM (inactive). The GI50 was 21.9 µM (inactive) in the assay on SN12C; 11.1 µM (inactive) in the assay with SNB-19; 2.35 µM (inactive) in the assay with SNB-75; 3.45 µM (inactive) with SR; 6.17 µM (inactive) with SW-620; 6.37 µM (inactive) with T47D. The GI50 in the assay on UACC-257 is > 48.2 µM (inactive); in the assay with UO-31, 26.2 µM (inactive).
On to `COc1cc(/N=C\N(C)C)c2ncccc2c1`, for which the GI50 is 28 µM (inactive) with CCRF-CEM; 26.8 µM (inactive) with HL-60; 32.1 µM (inactive) in the assay on HOP-92; 69.8 µM (inactive) with HT-29; 28.5 µM (inactive) in the assay with MDA-MB-435; 35.7 µM (inactive) in the assay with MOLT-4. Moreover, the GI50 in the assay with Malme-3M was > 100 µM (inactive); in the assay with NCI-H23, > 100 µM (inactive); in the assay on NCI-H522, 68.9 µM (inactive); in the assay with OVCAR-5, > 100 µM (inactive); in the assay with OVCAR-8 it was 51.8 µM (inactive); with SK-MEL-2, 46.2 µM (inactive). For the same compound, the GI50 was > 100 µM (inactive) with SN12C; > 100 µM (inactive) in the assay with SNB-19; 52.8 µM (inactive) with SNB-75; 1.62 µM (inactive) with SR; 78 µM (inactive) in the assay with T47D; > 100 µM (inactive) in the assay with UACC-257. The GI50 in the assay on UO-31 is 52 µM (inactive).
As for `NC(=O)c1[nH]nc(C2OC(CO)C(O)C2O)c1O` (centres undefined), the GI50 with CCRF-CEM was 0.507 µM (active); in the assay with HL-60 it was 0.724 µM (active); in the assay on HOP-92 it was 30.5 µM (inactive); in the assay with HT-29 it was 0.851 µM (active); in the assay on MDA-MB-435, 15.7 µM (inactive); with MOLT-4 it was 0.561 µM (active). Besides, the GI50 was 368 µM (inactive) in the assay with Malme-3M; 9.59 µM (inactive) in the assay on NCI-H23; 37.2 µM (inactive) in the assay with NCI-H522; 183 µM (inactive) with OVCAR-5; 0.5 µM (active) in the assay on OVCAR-8; 84.7 µM (inactive) in the assay with SK-MEL-2. The GI50 in the assay on SN12C was 3.18 µM (inactive); in the assay on SNB-19, 2.6 µM (inactive); in the assay with SNB-75 it was 101 µM (inactive); in the assay with SR, 0.5 µM (active); in the assay on SW-620, 0.55 µM (active); in the assay with T47D, 5.55 µM (inactive). For the same compound, the GI50 in the assay with UACC-257 was 966 µM (inactive); with UO-31 it was 4.01 µM (inactive).
As to `CCOC(=O)C(Cl)(NC(=O)c1c(F)c(F)c(F)c(F)c1F)C(F)(F)F` (centres undefined), the GI50 in the assay with CCRF-CEM was > 100 µM (inactive); in the assay with HL-60, 22.1 µM (inactive); in the assay with HOP-92 it was 28.3 µM (inactive); with HT-29 it was > 100 µM (inactive); in the assay on MDA-MB-435, > 100 µM (inactive); in the assay on MOLT-4, > 100 µM (inactive). For the same compound, the GI50 with Malme-3M is > 100 µM (inactive); in the assay with NCI-H23, > 100 µM (inactive); in the assay with NCI-H522 it was 19.5 µM (inactive); in the assay with OVCAR-5 it was > 100 µM (inactive); in the assay with OVCAR-8 it was > 100 µM (inactive); with SK-MEL-2, > 100 µM (inactive). Further, the GI50 with SN12C was > 100 µM (inactive); in the assay on SNB-19 it was > 100 µM (inactive); in the assay with SNB-75, > 100 µM (inactive); with SR, 9.4 µM (inactive); in the assay on SW-620 it was > 100 µM (inactive); with T47D, > 100 µM (inactive). The GI50 with UACC-257 and in the assay on UO-31 was > 100 µM (inactive) each time.
For `COc1ccc(C2c3cc4c(cc3OC(N3CCOCC3)C2C)OCO4)cc1OC` (centres undefined), the GI50 was 4.28 µM (inactive) in the assay on CCRF-CEM; 3.06 µM (inactive) in the assay on HL-60; 8.95 µM (inactive) in the assay on HOP-92; 4.69 µM (inactive) in the assay with HT-29; 2.04 µM (inactive) in the assay with MDA-MB-435; 4.48 µM (inactive) in the assay on MOLT-4. Also, the GI50 is 11.1 µM (inactive) with Malme-3M; 20.4 µM (inactive) with NCI-H23; 5.51 µM (inactive) with NCI-H522; 48.6 µM (inactive) in the assay on OVCAR-5; 20.4 µM (inactive) with OVCAR-8; 5.77 µM (inactive) in the assay with SK-MEL-2. Moreover, the GI50 in the assay on SN12C is 22.6 µM (inactive); with SNB-19, 7.18 µM (inactive); in the assay on SNB-75 it was 2.99 µM (inactive); with SR, 7.36 µM (inactive); in the assay on SW-620 it was 4.74 µM (inactive); with T47D, 4.99 µM (inactive). In addition, the GI50 in the assay with UACC-257 is 16.7 µM (inactive); with UO-31, 18 µM (inactive).
For the compound `Cc1ccc2c(c1C)C(=O)/C(=C/c1ccccc1C(=O)O)C2`, the GI50 is 76.9 µM (inactive) in the assay on CCRF-CEM; > 100 µM (inactive) with HL-60; > 100 µM (inactive) with HOP-92; > 100 µM (inactive) in the assay with HT-29; > 100 µM (inactive) in the assay on MDA-MB-435; > 100 µM (inactive) in the assay on MOLT-4. In addition, the GI50 with Malme-3M, with NCI-H23, with NCI-H522, in the assay with OVCAR-5, in the assay on OVCAR-8 and in the assay on SK-MEL-2 was > 100 µM (inactive) throughout. Also, the GI50 in the assay with SN12C, in the assay on SNB-19, with SNB-75, in the assay with SR, with SW-620 and in the assay with T47D was > 100 µM (inactive) each time. Also, the GI50 in the assay with UACC-257 and in the assay with UO-31 was > 100 µM (inactive) in each case.

These data come from ChEMBL document CHEMBL1201862, “PubChem BioAssay data set” (2004).
